Data published in patent US20130225575A1, “METHODS FOR TREATING NEUROLOGICAL CONDITIONS” (AFRAXIS, INC., priority 2010, published 2013).

How the values were obtained:
Type in all cases: biochemical
PAK1 = target: T1, PAK1 (Homo sapiens, UniProt Q13153); test: Z'Lyte fluorescence-based (FRET) kinase assay, PAK1; settings: ATP at Km apparent; 1 hr room temperature
T1 construct: Purified PAK kinase is incubated with ATP
Experimental: (§1) A fluorescence-based assay format is used to determine […] values of test compounds in vitro. Purified PAK kinase is incubated with ATP, and a test compound at various concentrations and a substrate peptide containing two fluorophores. In a second step, the reaction mix is incubated with a site-specific protease that cleaves non-phosphorylated but not phosphorylated substrate peptide, disrupting the FRET signal generated by the two fluorophores in the cleaved peptide (Z'Lyte™ Kinase assay platform; Life Technologies).
(§2) Reagents: 50 mM HEPES, pH 7.5; 0.01% BRIJ-35; 10 mM MgCl2; 1 mM EGTA, 2 uM substrate peptide Ser/Thr20 (proprietary Life Technologies Sequence), PAK enzyme [2.42-30.8 ng for PAK1, 0.29-6 ng for PAK2, 1.5-20 ng for PAK3 and 0.1-0.86 ng for PAK4; actual enzyme amounts depend on lot activity of the enzyme preparation]
(§3) Test compounds are dissolved in DMSO at various concentrations; the final DMSO concentration in the assay reaction is 1%.
(§4) ATP concentration at Km apparent is used in the assay [50 ? M ATP for PAK1 assay, 75 ? M ATP for PAK2 assay, 100 μM ATP for PAK3 assay, 5 μM ATP for PAK4 assay] in a total assay volume of 10 μl. […]
(§5) Plates are analyzed in a standard fluorescence plate reader (Tecan or equivalent) using an excitation wavelength of 400 nm and emission wavelengths of 445 nm and 520 nm. Inhibition of kinase reaction is determined by […]

PAK2 = PAK2 (Homo sapiens, UniProt Q13177); test: Z'Lyte fluorescence-based (FRET) kinase assay, PAK2; settings: ATP at Km apparent; 1 hr room temperature
Chain of PAK2 (Q13177 whole entry): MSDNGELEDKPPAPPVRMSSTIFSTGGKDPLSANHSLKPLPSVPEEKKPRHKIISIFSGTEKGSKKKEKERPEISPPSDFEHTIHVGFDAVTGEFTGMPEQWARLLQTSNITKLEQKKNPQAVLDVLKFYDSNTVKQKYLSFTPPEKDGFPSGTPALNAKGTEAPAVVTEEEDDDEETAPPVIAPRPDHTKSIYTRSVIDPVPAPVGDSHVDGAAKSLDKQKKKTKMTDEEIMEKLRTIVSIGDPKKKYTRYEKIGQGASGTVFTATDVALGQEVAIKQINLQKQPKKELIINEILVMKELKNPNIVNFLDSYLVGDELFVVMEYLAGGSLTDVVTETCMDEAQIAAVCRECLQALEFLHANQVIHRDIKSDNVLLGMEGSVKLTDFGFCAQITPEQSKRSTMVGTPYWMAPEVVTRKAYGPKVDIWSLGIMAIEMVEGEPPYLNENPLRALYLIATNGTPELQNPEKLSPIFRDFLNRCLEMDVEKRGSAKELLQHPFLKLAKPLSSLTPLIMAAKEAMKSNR
Experimental: as §1, §2, §3, §4, §5

PAK3 = PAK3 (Homo sapiens, UniProt O75914); test: Z'Lyte fluorescence-based (FRET) kinase assay, PAK3; settings: ATP at Km apparent (100 μM ATP); 1 hr room temperature
Chain of PAK3 (O75914 whole entry): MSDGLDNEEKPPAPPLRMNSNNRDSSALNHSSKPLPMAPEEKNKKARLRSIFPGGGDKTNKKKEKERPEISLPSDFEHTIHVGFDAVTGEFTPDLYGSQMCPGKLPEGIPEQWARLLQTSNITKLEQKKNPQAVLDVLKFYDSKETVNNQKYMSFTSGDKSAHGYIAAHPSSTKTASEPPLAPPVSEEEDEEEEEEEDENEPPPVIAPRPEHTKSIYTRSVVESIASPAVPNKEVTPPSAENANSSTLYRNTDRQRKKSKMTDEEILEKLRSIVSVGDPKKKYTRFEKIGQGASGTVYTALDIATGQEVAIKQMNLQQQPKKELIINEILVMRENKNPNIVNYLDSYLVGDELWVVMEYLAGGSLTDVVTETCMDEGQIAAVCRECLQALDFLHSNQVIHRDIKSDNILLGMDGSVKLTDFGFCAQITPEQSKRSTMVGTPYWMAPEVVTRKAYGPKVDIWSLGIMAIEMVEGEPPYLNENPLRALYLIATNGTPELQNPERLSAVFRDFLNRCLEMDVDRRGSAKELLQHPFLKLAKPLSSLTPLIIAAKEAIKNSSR
Experimental: as §1, §2, §3, §4, §5

PAK4 = target: T2, PAK4 (Homo sapiens, UniProt O96013); test: Z'Lyte fluorescence-based (FRET) kinase assay, PAK4; settings: ATP at Km apparent (5 μM ATP); 1 hr room temperature
T2 construct: Purified PAK kinase is incubated with ATP
T2 sequence (O96013 whole entry): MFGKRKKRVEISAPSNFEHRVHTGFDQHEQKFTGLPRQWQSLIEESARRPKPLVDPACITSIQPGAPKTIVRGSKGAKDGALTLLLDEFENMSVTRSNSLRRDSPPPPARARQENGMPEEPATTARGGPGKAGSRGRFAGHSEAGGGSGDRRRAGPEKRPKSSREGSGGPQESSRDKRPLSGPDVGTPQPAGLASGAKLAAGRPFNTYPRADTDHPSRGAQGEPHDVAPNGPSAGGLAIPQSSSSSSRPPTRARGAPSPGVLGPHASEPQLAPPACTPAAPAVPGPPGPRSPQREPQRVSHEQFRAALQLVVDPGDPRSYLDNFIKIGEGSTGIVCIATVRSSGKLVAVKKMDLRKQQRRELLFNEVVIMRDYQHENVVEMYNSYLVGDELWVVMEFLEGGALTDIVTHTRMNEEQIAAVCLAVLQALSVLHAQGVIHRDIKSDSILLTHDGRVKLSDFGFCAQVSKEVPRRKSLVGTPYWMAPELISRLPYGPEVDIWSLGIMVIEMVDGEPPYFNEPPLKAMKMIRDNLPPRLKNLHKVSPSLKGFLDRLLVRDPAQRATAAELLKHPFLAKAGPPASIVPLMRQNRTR
Experimental: as §1, §2, §3, §4, §5

Measured: IC50

T1 sequence (Q13153 whole entry): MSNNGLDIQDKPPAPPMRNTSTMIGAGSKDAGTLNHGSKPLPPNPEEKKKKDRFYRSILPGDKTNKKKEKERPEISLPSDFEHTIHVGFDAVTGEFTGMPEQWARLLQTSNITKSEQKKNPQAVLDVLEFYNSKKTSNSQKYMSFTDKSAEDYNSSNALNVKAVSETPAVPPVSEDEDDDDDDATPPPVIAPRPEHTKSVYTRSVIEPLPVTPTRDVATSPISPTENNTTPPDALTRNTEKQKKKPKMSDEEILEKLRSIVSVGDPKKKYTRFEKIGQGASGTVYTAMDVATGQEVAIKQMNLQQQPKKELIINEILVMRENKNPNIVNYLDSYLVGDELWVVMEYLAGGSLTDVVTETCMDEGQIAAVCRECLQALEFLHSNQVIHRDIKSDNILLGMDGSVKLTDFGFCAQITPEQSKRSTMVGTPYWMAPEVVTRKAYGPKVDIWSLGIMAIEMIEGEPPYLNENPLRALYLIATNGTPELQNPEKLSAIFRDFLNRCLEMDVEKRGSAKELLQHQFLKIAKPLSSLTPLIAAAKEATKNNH

CN1CCN(c2ccc(Nc3ncc4ccc(=O)n(Cc5c(O)cccc5Br)c4n3)cc2)CC1 [compound 123]
< 1000 nM: all assays above

CN1CCN(c2ccc(Nc3ncc4ccc(=O)n(Cc5c(O)cccc5F)c4n3)cc2)CC1 [compound 105]
< 1000 nM: all assays above
